Data: ChEMBL document CHEMBL4732213, “Discovery of novel ceramide analogs with favorable pharmacokinetic properties and combination with AKT inhibitor against colon cancer” (Eur J Med Chem, 2021)
Calls of active or inactive are those of the source. No cut-off for these calls is given here.

Legend:
HT-29 [1] = experiment: Antiproliferative activity against human HT-29 cells measured after 72 hrs by sulforhodamine B assay; assay type: functional, cell-based; conditions: HT-29, 72 h
T84 [2] = experiment: Antiproliferative activity against human T84 cells measured after 72 hrs by sulforhodamine B assay; assay type: functional, cell-based; conditions: T84, 72 h
COLO 205 = experiment: Antiproliferative activity against human COLO 205 cells measured after 72 hrs by sulforhodamine B assay; assay type: functional, cell-based; conditions: COLO 205, 72 h
HCT-8 = experiment: Antiproliferative activity against human HCT8 cells measured after 72 hrs by sulforhodamine B assay; assay type: functional, cell-based; conditions: HCT-8, 72 h
HCT-116 = experiment: Antiproliferative activity against human HCT116 cells measured after 72 hrs by sulforhodamine B assay; assay type: functional, cell-based; conditions: HCT-116, 72 h
Caco-2 = experiment: Antiproliferative activity against human Caco2 cells measured after 72 hrs by sulforhodamine B assay; assay type: functional, cell-based; conditions: Caco-2, 72 h
SW-620 = experiment: Antiproliferative activity against human SW620 cells measured after 72 hrs by sulforhodamine B assay; assay type: functional, cell-based; conditions: SW-620, 72 h
WI-38 = experiment: Antiproliferative activity against human WI-38 cells measured after 72 hrs by sulforhodamine B assay; assay type: cell-based; conditions: WI-38, 72 h
[3] = Antiproliferative activity against human SNU878 cells measured after 72 hrs by sulforhodamine B assay; assay type: functional, cell-based; conditions: SNU878, 72 h
[4] = Antiproliferative activity against human MINO cells measured after 72 hrs by CCK-8 assay; assay type: functional, cell-based
HT-29 [5] = experiment: Additive antiproliferative activity against human HT29 cells assessed as combination index at 10 uM after 72 hrs in presence of 2.5 uM AKT inhibitor MK2206 by Chou-Talalay method; assay type: functional
HT-29 [6] = experiment: Synergistic antiproliferative activity against human HT29 cells assessed as combination index at 20 uM after 72 hrs in presence of 5 uM AKT inhibitor MK2206 by Chou-Talalay method; assay type: functional
HT-29 [7] = experiment: Synergistic antiproliferative activity against human HT29 cells assessed as combination index at 30 uM after 72 hrs in presence of 7.5 uM AKT inhibitor MK2206 by Chou-Talalay method; assay type: functional
SW480 [8] = experiment: Additive antiproliferative activity against human SW480 cells assessed as combination index at 10 uM after 72 hrs in presence of 5 uM AKT inhibitor MK2206 by Chou-Talalay method; assay type: functional
COLO-678 = experiment: Synergistic antiproliferative activity against human COLO-678 cells assessed as combination index at 30 uM after 72 hrs in presence of 7.5 uM AKT inhibitor MK2206 by Chou-Talalay method; assay type: functional
T84 [9] = experiment: Additive antiproliferative activity against human T84 cells assessed as combination index at 5 uM after 72 hrs in presence of 2.5 uM AKT inhibitor MK2206 by Chou-Talalay method; assay type: functional
T84 [10] = experiment: Additive antiproliferative activity against human T84 cells assessed as combination index at 10 uM after 72 hrs in presence of 5 uM AKT inhibitor MK2206 by Chou-Talalay method; assay type: functional
SW480 [11] = experiment: Additive antiproliferative activity against human SW480 cells assessed as combination index at 40 uM after 72 hrs in presence of 20 uM AKT inhibitor MK2206 by Chou-Talalay method; assay type: functional
HT-29 [12] = experiment: Induction of apoptosis in human HT29 cells at 15 uM after 48 hrs by Annexin-V-FITC/PI staining based flow cytometric analysis; assay type: functional, cell-based
HT-29 [13] = experiment: Induction of apoptosis in human HT29 cells at 15 uM after 48 hrs in presence of 7.5 uM AKT inhibitor MK2206 by Annexin-V-FITC/PI staining based flow cytometric analysis; assay type: functional
HT-29 [14] = experiment: Induction of ROS generation in human HT29 cells at 20 uM after 16 hrs by flow cytometric analysis; assay type: functional, cell-based
HT-29 [15] = experiment: Induction of apoptosis in human HT29 cells assessed as inhibition of AKT phosphorylation at 20 uM after 48 hrs in presence of 10 uM MK2206 by Western blotting analysis; assay type: functional, cell-based
HT-29 [16] = experiment: Induction of apoptosis in human HT29 cells assessed as increase in PARP cleavage at 20 uM after 48 hrs in presence of 10 uM AKT inhibitor MK2206 by Western blot analysis; assay type: functional, cell-based
HT-29 [17] = experiment: Induction of apoptosis in human HT29 cells assessed as increase in caspase-3 cleavage at 20 uM after 48 hrs in presence of 10 uM AKT inhibitor MK2206 by Western blot analysis; assay type: functional, cell-based
HT-29 [18] = experiment: Induction of apoptosis in human HT29 cells assessed as increase in caspase-3 activity at 20 uM after 24 hrs in presence of 10 uM AKT inhibitor MK2206 by Western blot analysis; assay type: functional, cell-based
HT-29 [19] = experiment: Downregulation of c-Myc protein expression level in human HT29 cells at 20 uM incubated for 24 hrs in presence of 10 uM AKT inhibitor MK2206 by Western blotting analysis; assay type: functional, cell-based
HT-29 [20] = experiment: Upregulation of p21 protein expression in human HT29 cells at 20 uM incubated for 24 hrs in presence of 10 uM AKT inhibitor MK2206 by Western blotting analysis; assay type: functional, cell-based
HT-29 [21] = experiment: Down regulation of p-RB expression in human HT29 cells at 20 uM incubated for 24 hrs in presence of 10 uM AKT inhibitor MK2206 by Western blotting analysis; assay type: functional, cell-based
HT-29 [22] = experiment: Down regulation of CDK2 expression in human HT29 cells at 20 uM incubated for 24 hrs in presence of 10 uM AKT inhibitor MK2206 by Western blotting analysis; assay type: functional, cell-based
HT-29 [23] = experiment: Down regulation of CDK4 expression in human HT29 cells at 20 uM incubated for 24 hrs in presence of 10 uM AKT inhibitor MK2206 by Western blotting analysis; assay type: functional, cell-based
[24] = Cmax in BALB/c mouse at 50 mg/kg, ip; assay type: ADME, organism-based; set-up: route intraperitoneal, dose 50 mg/kg; conditions: in vivo
[25] = AUC(0 to infinity) in BALB/c mouse at 10 mg/kg, iv; assay type: ADME, organism-based; set-up: route intravenous, time infinity, dose 10 mg/kg; conditions: in vivo
[26] = Half life in BALB/c mouse at 50 mg/kg, ip; assay type: ADME, organism-based; conditions: in vivo
[27] = Half life in BALB/c mouse at 10 mg/kg, iv; assay type: ADME, organism-based; conditions: in vivo
HT-29 [28] = experiment: Antitumor activity against human HT-29 cells xenografted in BALB/c nude mouse assessed as tumor growth inhibition at 100 mg/kg/day, ip measured every 3 days in presence of 50 mg/kg AKT inhibitor MK2206 by electronic caliper method; assay type: functional; conditions: HT-29, ip, 72 h, time 3 day, read-out: TGI
HT-29 [29] = experiment: Antitumor activity against human HT-29 cells xenografted in BALB/c nude mouse assessed as reduction in tumor weight at 100 mg/kg/day, ip measured every 3 days in presence of 50 mg/kg AKT inhibitor MK2206 by electronic caliper method; assay type: functional, organism-based; conditions: time 3.0 day
[30] = Toxicity in BALB/c nude mouse xenografted with human HT-29 cells assessed as effect on body weight at 100 mg/kg/day, ip measured every 3 day by electronic caliper method; assay type: organism-based; conditions: in vivo, 72 h
[31] = Toxicity in BALB/c nude mouse xenografted with human HT-29 cells assessed as effect on body weight at 100 mg/kg/day, ip measured every 3 day in presence of 50 mg/kg AKT inhibitor MK2206 by electronic caliper method; assay type: organism-based; conditions: in vivo, 72 h

IC50 (HT-29 [1]): 17.6 µM
IC50 (COLO 205): 18.3 µM
IC50 (HCT-8): 21.8 µM
IC50 (HCT-116): 25.8 µM
IC50 (Caco-2): 28 µM
IC50 (SW-620): 29.6 µM
Cmax [24]: 6030 ng/mL
AUC(0-inf) [25]: 3060 ng·h/mL
half-life [26]: 198 min
half-life [27]: 187 min
SMILES: CCCCCCCOc1ccc(CCC(CO)(CO)NC(C)=O)c2ccccc12
IC50 (T84 [2]): 14.9 µM
IC50 (WI-38): 50.9 µM
IC50 [3]: 6.68 µM
IC50 [4]: 13.3 µM
CI (HT-29 [5]): 1.05
CI (HT-29 [6]): 0.77
CI (HT-29 [7]): 0.53
CI (SW480 [8]): 0.9
CI (COLO-678): 0.43
CI (T84 [9]): 1.1
CI (T84 [10]): 1.01
CI (SW480 [11]): 0.97
Activity (HT-29 [12]): inactive
Activity (HT-29 [13]): 40%
Activity (HT-29 [14]): inactive
Activity (HT-29 [15]): inactive
Activity (HT-29 [16]): Active
Activity (HT-29 [17]): Active
Activity (HT-29 [18]): Active
Activity (HT-29 [19]): Active
Activity (HT-29 [20]): Active
Activity (HT-29 [21]): Active
Activity (HT-29 [22]): Active
Activity (HT-29 [23]): Active
inhibition in vivo at 100 mg/kg/day (HT-29 [28]): 47.5%
Activity (HT-29 [29]): Active
Activity [30]: Non-Toxic
Activity [31]: Non-Toxic
